Results: patent US6894037B2, “2-methylene-19-nor-20(S)-25-methyl-1α-hydroxycalciferol and its uses” (Wisconsin Alumni Research Foundation, priority 2003, dated 2005)
Entries after “also recorded” stand apart in the source; their conditions may differ.

Legend:
CD-1 mice [1] = test: Bone calcium mobilization: serum calcium of mice fed 0.02% calcium diet after single oral dose; type: in vivo; conditions: for Bone Calcium Mobilization (serum calcium): single oral gavage, 0.02% calcium diet; for Bone calcium mobilization activity (bone resorption in vivo), in words: single oral dose, mice on 0.02% calcium diet
Source text: Goal: Determine whether or not TMM has bone calcium mobilization activity and how it compares to 1,25(OH)2D3 and 2-methylene-19-nor-20(S)-1α, 25-(OH)2D3 (hereinafter referred to as 2MD).
5-6 week old CD-1 mice were placed in the +D mouse room and fed chow diet. They were allowed to acclimate for 5 days before being switched to a purified diet described by Yang et al (Arch. Biochem. Biphys. 303, 98, 1993) containing 0.02% calcium and 0.3% P. Two days after the diet switch, dose administration began. Experimental Design:
All animals were weighed prior to dosing. The animals were divided into groups containing 5 animals/group. All animals were administered the drug by oral gavage one time. The dose was delivered in 100 μl Neobee oil/25 g mouse. […] The rise in serum calcium comes from bone mobilization only since no calcium is available from the intestine.
Mice fed a 0.02% calcium diet can only elevate their serum calcium levels by resorbing bone because no calcium is available through intestinal absorption. […] At lower doses, there was no significant elevation of serum calcium. […] Thus, the importance of the 25-hydroxyl for bone calcium mobilization is illustrated.

[2] = previous work; cited from earlier work
[3] = test system: porcine intestinal vitamin D receptor; test: Competitive binding to the porcine intestinal vitamin D receptor, displacement of [3H]-1,25-(OH)2-D3; conditions: compared with the native hormone 1,25-(OH)2D3; FIG. 1
Protocol: FIG. 1 is a graph illustrating the relative activity of 2-methylene-19-nor-20(S)-25-methyl-1α-hydroxycalciferol or 1α,25-dihydroxyvitamin D3 to compete for binding of [3H]-1,25-(OH)2—D3 to the vitamin D pig intestinal nuclear receptor;
Competitive binding of the analog to the porcine intestinal receptor was carried out by the method described by Dame et al (Biochemistry 25, 4523-4534, 1986).
Competitive binding of 1α, 25-(OH)2D3 and the synthesized vitamin D analog to the porcine intestinal vitamin D receptor was carried out in triplicate on two different occasions. ED50 values can be derived from dose-response curves (FIG. 1) and represent the analog concentration required for 50% displacement of the radiolabeled 1α,25-(OH)2D3 from the receptor protein. Binding ratio can then be determined from the ratio of the analog average ED50 to the ED50 for 1α,25-(OH)2D3.

HL-60 promyelocytes = test: Differentiation of HL-60 promyelocytes into monocytes (NBT reduction); type: cell-based; conditions: compared with 1,25-(OH)2D3; FIG. 2
Protocol: FIG. 2 is a graph illustrating the percent HL-60 cell differentiation as a function of the concentration of 2-methylene-19-nor-20(S)-25-methyl-1α-hydroxycalciferol or 1α,25-dihydroxyvitamin D3; and
The differentiation of HL-60 promyelocytes into monocytes was determined as described by Ostrem et al (J. Biol. Chem. 262, 14164-14171, 1987).
Induction of differentiation of HL-60 promyelocytes to monocytes by 1α,25-(OH)2D3 and the synthesized vitamin D analog was determined by measuring the percentage of cells reducing nitro blue tetrazolium (NBT). The experiment was repeated three times. The values ED50 can be derived from dose-response curves (FIG. 2) and represent the analog concentration capable of inducing 50% maturation. Differentiation activity ratio can then be determined from the ratio of the analog average ED50 to the ED50 for 1α,25-(OH)2D3.

CD-1 mice [4] = test: Intestinal calcium transport: serum calcium of alendronate-treated mice on 0.47% calcium diet; type: in vivo; conditions: FIG. 3
Source text: FIG. 3 is a graph illustrating serum calcium versus time of mice injected with vehicle plus alendronate, with 1α,25-dihydroxyvitamin D3 plus alendronate, or with 2-methylene-19-nor-20(S)-25-methyl-1α-hydroxycalciferol (TMM) plus alendronate. Since alendronate blocks bone resorption the rise in serum calcium reflects only intestinal absorption.
In this measurement, alendronate is used to block bone resorption so the rise in serum calcium is because of increased calcium absorption from the intestine.
Goal: Determine whether or not TMM has intestinal calcium transport activity and how it compares to 1,25(OH)2D3.
5-6 week old CD-1 mice were placed in the +D mouse room and fed chow diet. They were allowed to acclimate for 7 days before being switched to a diet containing 0.47% calcium.
All animals were weighed prior to dosing and divided into groups containing 5 animals/treatment group. […] Once all time points were collected, the serum was diluted 1:50 in 0.1% Lanthum Chloride and analyzed by atomic absorption spectrometry for determination of total serum calcium levels. • Group 1: Neobee oil+Alendronate (1.75 mg/kg bw) • Group 2: 40.5 ug 1,25(OH)2D3/kg bw+Alendronate (1.75 mg/kg bw) • Group 3: 4.5 ug TMM/kg bw+Alendronate (1.75 mg/kg bw) • Group 4: 13.5 ug TMM/kg bw+Alendronate (1.75 mg/kg bw) • Group 5: 40.5 ug TMM/kg bw+Alendronate (1.75 mg/kg bw) Results: […]

Compound | Bone calcium mobilization activity (bone resorption in vivo), in words (CD-1 mice [1]; Table 1) | Bone Calcium Mobilization (serum calcium) (CD-1 mice [1]; 0.5 μg/kg, 0 hr (predose)) | Bone Calcium Mobilization (serum calcium) (CD-1 mice [1]; 0.5 μg/kg, 24 hr) | Bone Calcium Mobilization (serum calcium) (CD-1 mice [1]; 0.5 μg/kg, 48 hr) | Bone Calcium Mobilization (serum calcium) (CD-1 mice [1]; 0.5 μg/kg, 72 hr) | Bone Calcium Mobilization (serum calcium) (CD-1 mice [1]; 1.5 μg/kg, 0 hr (predose)) | Bone Calcium Mobilization (serum calcium) (CD-1 mice [1]; 1.5 μg/kg, 24 hr) | Bone Calcium Mobilization (serum calcium) (CD-1 mice [1]; 1.5 μg/kg, 48 hr) | Bone Calcium Mobilization (serum calcium) (CD-1 mice [1]; 1.5 μg/kg, 72 hr) | Bone Calcium Mobilization (serum calcium) (CD-1 mice [1]; 4.5 μg/kg, 0 hr (predose)) | Bone Calcium Mobilization (serum calcium) (CD-1 mice [1]; 4.5 μg/kg, 24 hr) | Bone Calcium Mobilization (serum calcium) (CD-1 mice [1]; 4.5 μg/kg, 48 hr) | Bone Calcium Mobilization (serum calcium) (CD-1 mice [1]; 4.5 μg/kg, 72 hr) | Bone Calcium Mobilization (serum calcium) (CD-1 mice [1]; 13.5 μg/kg, 0 hr (predose)) | Bone Calcium Mobilization (serum calcium) (CD-1 mice [1]; 13.5 μg/kg, 24 hr) | Bone Calcium Mobilization (serum calcium) (CD-1 mice [1]; 13.5 μg/kg, 48 hr) | Bone Calcium Mobilization (serum calcium) (CD-1 mice [1]; 13.5 μg/kg, 72 hr) | further results
C=C1/C(=C\C=C2/CCC[C@]3(C)[C@@H]([C@H](C)CCCC(C)(C)O)CC[C@@H]23)C[C@@H](O)C[C@@H]1O [1α,25(OH)2D3, 1α,25-dihydroxyvitamin D3] | effective at 50 μg/kg bw and 450 μg/kg bw |  |  |  |  |  |  |  |  |  |  |  |  |  |  |  |  | Bone Calcium Mobilization (serum calcium) (CD-1 mice [1]; 50 μg/kg, 0 hr (predose)): 8.8 ± 0.2 mg/dL; Bone Calcium Mobilization (serum calcium) (CD-1 mice [1]; 50 μg/kg, 24 hr): 10.9 ± 0.1 mg/dL; Bone Calcium Mobilization (serum calcium) (CD-1 mice [1]; 50 μg/kg, 48 hr): 9.6 ± 0.3 mg/dL; Bone Calcium Mobilization (serum calcium) (CD-1 mice [1]; 50 μg/kg, 72 hr): 9.1 ± 0.2 mg/dL; Bone Calcium Mobilization (serum calcium) (CD-1 mice [1]; 450 μg/kg, 0 hr (predose)): 8.8 ± 0.2 mg/dL; Bone Calcium Mobilization (serum calcium) (CD-1 mice [1]; 450 μg/kg, 24 hr): 11.6 ± 0.3 mg/dL; Bone Calcium Mobilization (serum calcium) (CD-1 mice [1]; 450 μg/kg, 48 hr): 11.4 ± 0.7 mg/dL; Bone Calcium Mobilization (serum calcium) (CD-1 mice [1]; 450 μg/kg, 72 hr): 9.4 ± 0.4 mg/dL; Intestinal calcium absorption activity relative to 2-methylene-19-nor-20(S)-1α, 25-(OH)2D3 [2]: about the same activity
C=C1[C@H](O)CC(=C/C=C2\CCC[C@]3(C)[C@@H]([C@@H](C)CCCC(C)(C)O)CC[C@@H]23)C[C@H]1O [2MD, 2-methylene-19-nor-20(S)-1α, 25-(OH)2D3] |  | 8.8 ± 0.3 mg/dL | 9.4 ± 0.2 mg/dL | 9.2 ± 0.2 mg/dL | 8.9 ± 0.2 mg/dL | 8.8 ± 0.2 mg/dL | 10.1 ± 0.1 mg/dL | 10.5 ± 0.2 mg/dL | 10.1 ± 0.2 mg/dL | 8.8 ± 0.0 mg/dL | 10.9 ± 0.2 mg/dL | 12.6 ± 0.5 mg/dL | 12.0 ± 0.4 mg/dL | 8.6 ± 0.1 mg/dL | 11.5 ± 0.4 mg/dL | 10.8 ± 0.5 mg/dL | 13.4 ± 0.6 mg/dL | 
C=C1[C@H](O)CC(=C/C=C2\CCC[C@]3(C)[C@@H]([C@@H](C)CCCC(C)(C)C)CC[C@@H]23)C[C@H]1O [TMM, 2-methylene-19-nor-20(S)-25-methyl-1α-hydroxycalciferol] | only at the highest dose caused bone resorption in vivo; also recorded: very little bone calcium mobilization activity | 8.7 ± 0.2 mg/dL | 8.8 ± 0.1 mg/dL | 8.7 ± 0.1 mg/dL | 8.7 ± 0.1 mg/dL | 8.7 ± 0.2 mg/dL | 8.7 ± 0.2 mg/dL | 8.6 ± 0.1 mg/dL | 8.9 ± 0.2 mg/dL | 8.5 ± 0.3 mg/dL | 9.0 ± 0.1 mg/dL | 8.9 ± 0.1 mg/dL | 8.8 ± 0.2 mg/dL | 8.8 ± 0.1 mg/dL | 9.7 ± 0.2 mg/dL | 9.9 ± 0.3 mg/dL | 9.5 ± 0.3 mg/dL | Binding to the vitamin D receptor relative to 1,25-(OH)2D3 [3]: one-tenth as well; HL-60 differentiation activity relative to 1,25-(OH)2D3 (HL-60 promyelocytes): essentially equal to that of 1,25-(OH)2D3; Activity in raising serum calcium (bone calcium mobilization) relative to 1,25-(OH)2D3 (CD-1 mice [1]; compared with 1,25-(OH)2D3, Table 1): approximately equal to 1,25-(OH)2D3; also recorded: below that of the native hormone; Activity in raising serum calcium (bone calcium mobilization) relative to 2MD (CD-1 mice [1]; compared with 2MD, Table 1): one-tenth as active as 2MD; also recorded: fell far below; Intestinal calcium transport activity, in words (CD-1 mice [4]): more intestinal calcium transport activity than does 1,25(OH)2D3; also recorded: very strong effect on intestinal calcium absorption
